From patent US20230119539A1, “TRACELESS LINKERS AND PROTEIN-CONJUGATES THEREOF” (Regeneron Pharmaceuticals, Inc., priority 2019, published 2023)

T1: GR (Homo sapiens, UniProt P04150)
T1 construct: host or cells: HEK293 (HEK293/GRLuc; HEK293/GRLuc/MSR1 additionally transduced with human MSR1)
T1 sequence (P04150 524-758 limits assumed): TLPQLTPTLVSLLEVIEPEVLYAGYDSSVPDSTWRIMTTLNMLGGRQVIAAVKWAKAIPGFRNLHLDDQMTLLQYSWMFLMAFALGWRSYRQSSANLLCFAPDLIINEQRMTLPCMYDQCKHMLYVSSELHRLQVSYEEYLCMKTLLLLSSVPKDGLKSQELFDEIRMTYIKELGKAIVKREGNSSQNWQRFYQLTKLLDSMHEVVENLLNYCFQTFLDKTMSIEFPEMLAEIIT

T2: human macrophage scavenger receptor 1 (MSR1) (human, UniProt P21757 1-451)
T2 sequence (looked up): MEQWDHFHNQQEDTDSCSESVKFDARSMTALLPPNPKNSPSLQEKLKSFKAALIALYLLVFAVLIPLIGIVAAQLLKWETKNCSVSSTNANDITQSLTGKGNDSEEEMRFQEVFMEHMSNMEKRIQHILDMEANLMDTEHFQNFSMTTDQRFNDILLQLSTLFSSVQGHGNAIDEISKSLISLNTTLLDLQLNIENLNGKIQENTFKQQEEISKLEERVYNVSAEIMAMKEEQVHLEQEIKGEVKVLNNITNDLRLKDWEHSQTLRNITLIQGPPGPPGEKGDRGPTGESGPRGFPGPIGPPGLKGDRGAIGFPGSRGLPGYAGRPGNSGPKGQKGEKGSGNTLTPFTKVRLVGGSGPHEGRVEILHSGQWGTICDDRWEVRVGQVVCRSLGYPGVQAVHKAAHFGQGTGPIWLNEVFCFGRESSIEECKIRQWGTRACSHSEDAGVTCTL

B1: H1H21234N-N297Q-L1-PIII-1 (antibody, V domains shown)
VH: QVQLQESGPGLVKPSETLSLTCTVTGGSISRNYWSWIRQPPGKGLEWIGYIYYSGSIDYNPSLKSRVTISVDTSKNQFSLKLSSMTAADTAVYYCARDRWNWKYGMDVWGQGTTVIVSS
VL: EIVLTQSPGTLSLSPGERATLSCRASQTVRNNYLAWYHQKPGQAPRLLIYGASSRATGIPDRFSGSGSGTDFTLTISRLEPEDFTVYYCHQYGNSPWTFGQGTKMEIKR
modifications: heavy-chain constant region (not part of this entry): N297Q (EU); linker-payload L1-PIII-1 (DIBAC-suc-PEG4-vcPAB-PIII-1, payload 6,11-2F-budesonide III) clicked onto azido-PEG3-amine on glutamines; DAR 4
B2: H1H21234N-N297Q-L3-PIII-1 (antibody, V domains shown)
VH: B1 VH
VL: B1 VL
modifications: heavy-chain constant region (not part of this entry): N297Q (EU); linker-payload L3-PIII-1 (DIBAC-suc-PEG4-GGF-PIII-1) clicked onto azido-PEG3-amine on glutamines; DAR 4

Tests used:
[1] = molecular target: T1, GR; test: GR luciferase reporter assay in HEK293/GRLuc cells; assay type: cell-based; conditions: for EC50: 48 hours
Description: (§1) Activity of anti-MSR1 ncADCs were tested using an MSR1 ADC steroid responsive luciferase reporter assay. To generate the assay cell line, HEK293 cells were co-transfected with the pBind-GR (Promega, Cat #E158A) and pGL4.35 [Luc2P/9xGAL4UAS/Hygro] (Promega, Cat #E137A) vectors. The pBind-GR vector expresses a fusion protein consisting of the GR ligand binding and the yeast Gal4DNA-binding domain, which binds to the Gal4 upstream activation sequence (UAS) in the luciferase expression vector, that can induce luciferase expression following GR agonist binding. The cells were selected for at least 2 weeks in G418+hygromycin and the resulting cell line is referred to as HEK293/GRLuc. HEK293/GRLuc cells were then transduced with a human MSR1 lentiviral expression vector and 48 hours later cells were sorted for MSR1 positive cells. The resulting cell line is referred to as HEK293/GRLuc/MSR1.
(§2) Three-fold serial dilutions of ncADCs in assay buffer were added to the cells for 48 hours. The last well in the plate served as blank control containing only the assay media and was plotted as a continuation of the 3-fold serial dilution. Luciferase activity was determined using the One-Glo™ reagent (Promega, Cat #E6130). Relative light units (RLUs) were measured on an Envision luminometer (PerkinElmer) and EC50 values were determined using a four-parameter logistic equation over a 10-point dose response curve (GraphPad Prism). The signal to noise (S/N) was determined by taking the ratio of the highest RLU on the dose response curve to the RLU in the untreated wells.
(§3) To test the activity of GR agonist payloads disclosed herein, a cell-based GR responsive luciferase reporter assay was developed as described above.
(§4) Three-fold serial dilutions of free payloads were prepared in 100% DMSO, transferred to fresh assay media, and added to the cells for 48 hours. […] The last well in the plate served as blank control containing only the assay media and 0.2% DMSO (untreated well) and was plotted as a continuation of the 3-fold serial dilution. Luciferase activity was determined using the One-Glo™ reagent (Promega, Cat #E6130). Relative light units (RLUs) were measured on an Envision luminometer (PerkinElmer) and EC50 values were determined using a four-parameter logistic equation over a 10-point dose response curve (GraphPad Prism). The signal to noise (S/N) was determined by taking the ratio of the highest RLU on the dose response curve to the RLU in the untreated wells.

[2] = Metabolic stability with human liver microsomes; assay type: in vitro ADME; conditions: for Percent Remaining (%): Mean; for CLint scaled / half-life: human
Description: The metabolic stability of payload PIII-1 incubated with human liver microsomes was evaluated and the results were shown in the Table 7e below.

[3] = molecular target: T1, GR; test: GR luciferase reporter assay in HEK293/GRLuc/MSR1 cells; assay type: cell-based; conditions: Table 8b, free payloads; for S/N: HEK293/GRLuc/MSR1; for EC50: HEK293/GRLuc/MSR1, 48 hours
Description: as §1, §2, §3, §4

[4] = molecular target: T2, human macrophage scavenger receptor 1 …; test: cell-based or functional assay
[5] = Lysosomal cleavage assay (payload release); assay type: in vitro ADME, human; conditions: 0 hours, 1 μM payload-equivalent ncADC, 37° C.; for Released Payload Precursor Concentration: precursor PIII-1 released; for Released Payload Concentration: steroid III released
Description: To confirm the release of payloads linked to antibodies via hemiaminal ether linkers, a lysosomal cleavage assay was performed. […] 200 μL of resulting mixture with 1 μM payload-equivalent ncADC was incubated at 37° C. with gentle shaking over a 24-hour period. A 20 μL aliquot was taken at 0, 0.5, 1.0, 2.0, 4.0, 8.0 and 24 hours and immediately transferred to a plate containing 80 μL cold acetonitrile to deactivate the lysosomal enzymes and precipitate the proteins. After centrifugation at 2,000 rpm for 5 minutes, aliquots of supernatant were diluted with an equal volume of water for LC-MS analysis to determine the amount of precursor and payload released from ncADC.

[6] = Table 8, ncADCs, highest RLU / RLU of untreated wells

| Molecule | S/N ([1]; Table 8b, free payloads) | EC50 ([1]; Table 8b, free payloads) [pM] | Percent Remaining (%) ([2]; 0 min) | Percent Remaining (%) ([2]; 5 min) | Percent Remaining (%) ([2]; 15 min) | Percent Remaining (%) ([2]; 30 min) | Percent Remaining (%) ([2]; 45 min) | CLint scaled [2] [mL/min/kg] | half-life [2] [min] | S/N [3] | EC50 [3] [pM] | EC50, GR luciferase reporter activity in HEK293/GRLuc/MSR1 cells [4] [pM] | S/N (highest RLU / RLU in untreated wells), HEK293/GRLuc/MSR1 cells [4] | Released Payload Precursor Concentration [5] [nM] | Released Payload Concentration [5] [nM] | EC50 ([1]; Table 8, ncADCs) [pM] | S/N [1, 6] |
| --- | --- | --- | --- | --- | --- | --- | --- | --- | --- | --- | --- | --- | --- | --- | --- | --- | --- |
| CCCC1O[C@@H]2C[C@H]3[C@@H]4C[C@H](F)C5=CC(=O)C=C[C@]5(C)[C@@]4(F)[C@@H](O)C[C@]3(C)[C@]2(C(=O)CO)O1 (stereo partly shown) [III] | 34.4 | 19.7 | 100.00 | 16.15 | 0.75 | 0.76 | 0.14 | 811 | 2.14 | 156.7 | 24.2 |  |  |  |  |  |  |
| CCCC1O[C@@H]2C[C@H]3[C@@H]4C[C@H](F)C5=CC(=O)C=C[C@]5(C)[C@@]4(F)[C@@H](O)C[C@]3(C)[C@]2(C(=O)COCNC(=O)CN)O1 (stereo partly drawn) [PIII-1, 2-Amino-N-({2-[(1S,2S,4R,8S,9S,11S,12R,13S,19S)-12,19-difluoro-11-hydroxy-9,13-dimethyl-16-oxo-6-propyl-5,7-dioxapentacyclo[10.8.0.0^2,9.0^4,8.0^13,18]icosa-14,17-dien-8-yl]-2-oxoethoxy}methyl)acetamide] | 32.1 | 46.5 | 100.00 | 59.35 | 23.58 | 6.83 | 2.68 | 223 | 7.8 | 179.3 | 54.5 |  |  |  |  |  |  |
| B1 |  |  |  |  |  |  |  |  |  |  |  | 97.3 | 143 | 0 | 0 | 50600 | 16.4 |
| B2 |  |  |  |  |  |  |  |  |  |  |  | 85.4 | 269 | 0 | 10.1 | 47600 | 17.5 |
